What was measured:
Assay type in all cases: cell-based, Dickeya dadantii 3937 (Ech3937)
hrpA promoter = hrpA promoter activity, GFP reporter plasmid phrpA, flow cytometry (FACS); conditions: for expression of hrpA, GFP intensity (Mean Fluorescence Intensity), Ech3937 carrying phrpA: MM + 0.1 mM compound
Protocol: FACS analysis of promoter activity of dspE, hrpA, hrpL, hrpN, and hrpS was carried out as described (Peng et al., 2006). Briefly, the wild-type Ech3937 and the mutant strains carrying the promoter reporter plasmid were grown on LB broth at 28° C. overnight and transferred to appropriate media. For FACS analysis, samples were collected by centrifugation, washed with 1× phosphate buffer saline (PBS) at 13,000 rpm for 1 min, and re-suspended in 1×PBS to ca 10^6 CFU/ml prior to being run in a FACS Calibur flow cytometer (BD Biosciences, CA). Three replicates were performed for each treatment.
To identify potential compounds that repress activation of T3SS, analogs and isomers of TCA and intermediates of salicylic acid and phenypropanoid biosynthesis pathways in plants were further screened for their effect on Ech3937 hrpA expression by flow cytometry (Table 9). A green fluorescent protein (GFP) reporter plasmid phrpA (pProbe-AT derivative with PCR fragment containing hrpA promoter region) was constructed, resulting in a transcriptional fusion of hrpA promoter with GFP gene. Bacterial cells containing phrpA plasmid were grown in MM supplemented with 0.1 mM of each compound. GFP intensity, which is a measurement of hrpA promoter activity, was measured by flow cytometry.

Ech3937 = experiment: Growth of Ech3937 in MM supplemented with compound; conditions: 0.05, 0.1 and 0.2 mM in MM (FIGS. 2A, 2B)
Source text: Phenolic compounds constitute an important class of organic substances produced by plants. The phenolic compound SA is a signaling molecule that plays a role in host defenses. OCA and TCA are the biosynthetic precursors of SA and are also reported to induce the expression of defense-related genes in plants. OCA, TCA, and SA were examined to elucidate their effects on the expression of T3SS genes. The expression of the T3SS gene hrpN was examined in MM and MM supplemented with OCA, TCA, and SA, at concentrations of 0.05, 0.1, and 0.2 mM, respectively. FIGS. 2A and 2B show the promoter activities of hrpN in Dickeya dadantii 3937 (Ech3937) grown in MM and MM supplemented with 0.05, 0.1, and 0.2 mM OCA, TCA, and SA at 12 h (FIG. 2A) and 24 h (FIG. 2B) post-inoculation. GFP intensity was determined on gated populations of bacterial cells by flow cytometry and analyzed with the Cell Quest software (BD Biosciences, San Jose, Calif.). The growth of Ech3937 in MM supplemented with different concentrations of OCA, TCA and SA was recorded. Compared with MM alone, the average GFP fluorescence intensity of bacterial cells of Ech3937 (phrpN) was increased approximately 4-fold when 0.05 mM of OCA and TCA were added to the medium (FIGS. 2A, 2B).
The expression of the T3SS gene hrpA was further examined in MM and MM supplemented with PCA at concentrations of 0.001, 0.005, 0.01, 0.05 and 0.1 mM respectively. FIGS. 16A and 16B show the promoter activities of hrpA in Dickeya dadantii 3937 (Ech3937) grown in minimum medium (MM) and MM supplemented with different amount of p-coumaric acid (PCA) at 12 h (FIG. 16A) and 24 h (FIG. 16B) post-inoculation. GFP intensity was determined on gated populations of bacterial cells by flow cytometry and analyzed with the Cell Quest software (BD Biosciences, San Jose, Calif.). The growth of Ech3937 in MM supplemented with different concentrations of PCA was recorded. Compared with MM alone, the average GFP fluorescence intensity of bacterial cells of Ech3937 (phrpA) was reduced more than 4-fold when 0.05 and 0.1 mM of PCA were added to the medium (FIGS. 16A, 16B).

hrpN promoter = hrpN promoter activity, GFP reporter plasmid phrpN, flow cytometry (FACS)

O=C(O)[C@@H]1C[C@H]1c1ccccc1 (relative stereo) [trans-2-Phenylcyclopropane-1-carboxylic acid]
expression of hrpA, GFP intensity (Mean Fluorescence Intensity), Ech3937 carrying phrpA (hrpA promoter; 6 h (Table 9)): 7.2 ± 0.1
expression of hrpA, GFP intensity (Mean Fluorescence Intensity), Ech3937 carrying phrpA (hrpA promoter; 12 h (Table 9)): 67.0 ± 18.4
expression of hrpA, GFP intensity (Mean Fluorescence Intensity), Ech3937 carrying phrpA (hrpA promoter; 24 h (Table 9)): 84.0 ± 14.3

O=C(O)C=Cc1ccccc1Cl [2-Chlorocinnamic acid]
expression of hrpA, GFP intensity (Mean Fluorescence Intensity), Ech3937 carrying phrpA (hrpA promoter; 6 h (Table 9)): 25.7 ± 0.2
expression of hrpA, GFP intensity (Mean Fluorescence Intensity), Ech3937 carrying phrpA (hrpA promoter; 12 h (Table 9)): 166.2 ± 17.8
expression of hrpA, GFP intensity (Mean Fluorescence Intensity), Ech3937 carrying phrpA (hrpA promoter; 24 h (Table 9)): 319.8 ± 48.3

Cc1ccccc1C=CC(=O)O [2-Methylcinnamic acid]
expression of hrpA, GFP intensity (Mean Fluorescence Intensity), Ech3937 carrying phrpA (hrpA promoter; 6 h (Table 9)): 22.8 ± 0.6
expression of hrpA, GFP intensity (Mean Fluorescence Intensity), Ech3937 carrying phrpA (hrpA promoter; 12 h (Table 9)): 157.2 ± 11.7
expression of hrpA, GFP intensity (Mean Fluorescence Intensity), Ech3937 carrying phrpA (hrpA promoter; 24 h (Table 9)): 342.5 ± 16.6

OCC=Cc1ccccc1 [Cinnamyl alcohol]
effect on expression of hrpA (screen result) (hrpA promoter; MM + 0.1 mM compound (Table 9)): inhibitors of the expression of hrpA
expression of hrpA, GFP intensity (Mean Fluorescence Intensity), Ech3937 carrying phrpA (hrpA promoter; 6 h (Table 9)): 6.3 ± 0.1
expression of hrpA, GFP intensity (Mean Fluorescence Intensity), Ech3937 carrying phrpA (hrpA promoter; 12 h (Table 9)): 27.8 ± 5.0
expression of hrpA, GFP intensity (Mean Fluorescence Intensity), Ech3937 carrying phrpA (hrpA promoter; 24 h (Table 9)): 53.8 ± 2.9

O=C(O)CCc1ccccc1 [Hydrocinnamic acid]
expression of hrpA, GFP intensity (Mean Fluorescence Intensity), Ech3937 carrying phrpA (hrpA promoter; 6 h (Table 9)): 13.7 ± 1.0
expression of hrpA, GFP intensity (Mean Fluorescence Intensity), Ech3937 carrying phrpA (hrpA promoter; 12 h (Table 9)): 200.3 ± 35.8
expression of hrpA, GFP intensity (Mean Fluorescence Intensity), Ech3937 carrying phrpA (hrpA promoter; 24 h (Table 9)): 213.5 ± 18.9

COC(=O)/C=C/c1ccccc1 [Methyl trans-cinnamate]
expression of hrpA, GFP intensity (Mean Fluorescence Intensity), Ech3937 carrying phrpA (hrpA promoter; 6 h (Table 9)): 9.7 ± 0.1
expression of hrpA, GFP intensity (Mean Fluorescence Intensity), Ech3937 carrying phrpA (hrpA promoter; 12 h (Table 9)): 135.8 ± 8.1
expression of hrpA, GFP intensity (Mean Fluorescence Intensity), Ech3937 carrying phrpA (hrpA promoter; 24 h (Table 9)): 219.2 ± 14.5

O=C(O)COc1ccccc1 [Phenoxyacetic acid]
expression of hrpA, GFP intensity (Mean Fluorescence Intensity), Ech3937 carrying phrpA (hrpA promoter; 6 h (Table 9)): 18.0 ± 3.1
expression of hrpA, GFP intensity (Mean Fluorescence Intensity), Ech3937 carrying phrpA (hrpA promoter; 12 h (Table 9)): 222.7 ± 64.3
expression of hrpA, GFP intensity (Mean Fluorescence Intensity), Ech3937 carrying phrpA (hrpA promoter; 24 h (Table 9)): 205.7 ± 11.8

O=C(O)c1ccccc1O [SA, salicylic acid, reference compound]
bacterial growth of Ech3937 in supplemented MM (Ech3937): No reduction of bacterial growth
effect on GFP fluorescence intensity of Ech3937 (phrpN) compared with MM alone (hrpN promoter; 0.05, 0.1 and 0.2 mM in MM, 12 h and 24 h (FIGS. 2A, 2B)): did not result in increased GFP fluorescence intensity
GFP Intensity of Ech3937 (phrpN) (hrpN promoter; MM + 0.2 μM compound, 12 h): 53.7 ± 4.0
GFP Intensity of Ech3937 (phrpN) (hrpN promoter; MM + 0.2 μM compound, 24 h): 105 ± 28
GFP Intensity of Ech3937 (phrpN) (hrpN promoter; MM + 0.5 μM compound, 12 h): 49.5 ± 5.9
GFP Intensity of Ech3937 (phrpN) (hrpN promoter; MM + 0.5 μM compound, 24 h): 99.5 ± 18
GFP Intensity of Ech3937 (phrpN) (hrpN promoter; MM + 5 μM compound, 12 h): 49.9 ± 2.9
GFP Intensity of Ech3937 (phrpN) (hrpN promoter; MM + 5 μM compound, 24 h): 97.7 ± 9.0
GFP Intensity of Ech3937 (phrpN) (hrpN promoter; MM + 10 μM compound, 12 h): 52.0 ± 2.3
GFP Intensity of Ech3937 (phrpN) (hrpN promoter; MM + 10 μM compound, 24 h): 104 ± 3.1

O=C(O)/C=C/c1cccc(O)c1 [m-Coumaric acid]
expression of hrpA, GFP intensity (Mean Fluorescence Intensity), Ech3937 carrying phrpA (hrpA promoter; 6 h (Table 9)): 12.1 ± 0.0
expression of hrpA, GFP intensity (Mean Fluorescence Intensity), Ech3937 carrying phrpA (hrpA promoter; 12 h (Table 9)): 133.0 ± 38.2
expression of hrpA, GFP intensity (Mean Fluorescence Intensity), Ech3937 carrying phrpA (hrpA promoter; 24 h (Table 9)): 203.3 ± 9.6

O=C(O)/C=C/c1cccnc1 [trans-3-(3-Pyridyl)acrylic acid]
expression of hrpA, GFP intensity (Mean Fluorescence Intensity), Ech3937 carrying phrpA (hrpA promoter; 6 h (Table 9)): 13.1 ± 0.4
expression of hrpA, GFP intensity (Mean Fluorescence Intensity), Ech3937 carrying phrpA (hrpA promoter; 12 h (Table 9)): 184.9 ± 35.6
expression of hrpA, GFP intensity (Mean Fluorescence Intensity), Ech3937 carrying phrpA (hrpA promoter; 24 h (Table 9)): 204.0 ± 16.8

O=C(O)/C=C/c1c[nH]c2ccccc12 [trans-3-indoleacrylic acid]
expression of hrpA, GFP intensity (Mean Fluorescence Intensity), Ech3937 carrying phrpA (hrpA promoter; 6 h (Table 9)): 7.9 ± 0.2
expression of hrpA, GFP intensity (Mean Fluorescence Intensity), Ech3937 carrying phrpA (hrpA promoter; 12 h (Table 9)): 23.9 ± 1.3
expression of hrpA, GFP intensity (Mean Fluorescence Intensity), Ech3937 carrying phrpA (hrpA promoter; 24 h (Table 9)): 121.0 ± 6.2
